Data as given in PubChem BioAssay (NCI).
Values joined by “and” are separate entries in the source; they are usually repeats but may differ in a detail not shown here. Equal values may be shown once.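 Protocol summary: plate cells (96-well), add compound at 5 concentrations, incubate 48 h, interpolate endpoints linearly. GI50 = concentration required for 50% inhibition of growth. The concentration for full growth arrest is given as TGI.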

Tests used:
Assay in all cases: DTP human tumour cell line panel, 48 h
HCT-15 colon = system: HCT-15 colon
M14 melanoma = system: M14 melanoma
MALME-3M melanoma = system: MALME-3M melanoma
MCF7 breast = system: MCF7 breast
SK-OV-3 ovarian = system: SK-OV-3 ovarian
HOP-92 NSCLC = system: HOP-92 NSCLC
BT-549 breast = system: BT-549 breast
TK-10 renal = system: TK-10 renal
MOLT-4 leukemia = system: MOLT-4 leukemia
T-47D breast = system: T-47D breast

| SMILES | GI50 (HCT-15 colon) [µM] | TGI (HCT-15 colon) [µM] | GI50 (M14 melanoma) [µM] | TGI (M14 melanoma) [µM] | GI50 (MALME-3M melanoma) [µM] | TGI (MALME-3M melanoma) [µM] | GI50 (MCF7 breast) [µM] | TGI (MCF7 breast) [µM] | GI50 (SK-OV-3 ovarian) [µM] | TGI (SK-OV-3 ovarian) [µM] | GI50 (HOP-92 NSCLC) | TGI (HOP-92 NSCLC) [µM] | GI50 (BT-549 breast) [µM] | TGI (BT-549 breast) [µM] | GI50 (TK-10 renal) [µM] | TGI (TK-10 renal) [µM] | GI50 (MOLT-4 leukemia) [µM] | TGI (MOLT-4 leukemia) [µM] | GI50 (T-47D breast) [µM] | TGI (T-47D breast) [µM] |
| --- | --- | --- | --- | --- | --- | --- | --- | --- | --- | --- | --- | --- | --- | --- | --- | --- | --- | --- | --- | --- |
| Cn1cc(-c2csc(-c3cn(C)c4ccc(F)cc34)n2)c2cnccc21 | 1.68 | 3.27 | 1.72 | 3.21 | 1.97 | 3.57 | 1.93 | 3.66 | 2.03 | 3.75 | 1.64 µM | 3.26 | 1.71 | 3.1 | 1.56 | 2.98 | – | – | – | – |
| NC(=O)CNc1ccc([As]=[As]c2ccc(NCC(N)=O)cc2)cc1 (centres undefined) | 4.21 | 60.7 | 5.02 | 20.6 | 2.62 | 9.71 | 2.12 | 15.2 | 22.6 | 71.4 | 1.63 µM | 15.1 | – | – | – | – | 9.29 | > 100 | 1.44 | 17.4 |
| NC(CCc1ncc(C(=O)O)s1)C(=O)O (centres undefined) | – | > 100 | – | > 100 | – | > 100 | – | – | – | > 100 | – | > 100 | – | – | – | > 100 | – | > 100 | – | – |
| O=C1CC2CCN(C(=O)c3ccccc3)CC2CCN1 (centres undefined) | – | > 100 | – | > 100 | – | > 100 | – | – | – | > 100 | – | > 100 | – | – | – | > 100 | – | > 100 | – | – |
| CCOC(=O)C1=C(Nc2ccc(Br)cc2)OCC1=O | – | > 100 | – | > 100 | – | > 100 | – | – | – | > 100 | – | > 100 | – | – | – | > 100 | – | > 100 | – | – |
| COc1cc2c(cc1OC)C1Cc3cc(OC)c(OC)cc3N1CC2 (centres undefined) | – | – | – | 53.4 | – | 54.4 | – | – | – | > 100 | – | > 100 | – | – | – | 50.5 | – | > 100 | – | – |
| C=CCC1(C)CCCCC1(O)CS(=O)c1ccccc1 (centres undefined) | – | > 100 | – | > 100 | – | > 100 | – | – | – | > 100 | – | > 100 | – | – | – | > 100 | – | > 100 | – | – |
| Cc1ccc(C)c(N2C(=O)C(=O)C(c3nc4ccccc4o3)/C(=N/N)C2=O)c1 (centres undefined) | – | > 100 | – | > 100 | – | > 100 | – | – | – | > 100 | – | > 100 | – | – | – | > 100 | – | > 100 | – | – |
| COc1cc(-c2nnc3n2NC=C(C(=O)O)S3)cc(OC)c1OC | – | > 67.5 | – | > 100 | – | > 100 | – | – | – | > 100 | – | > 100 | – | – | – | > 100 | – | > 100 | – | – |
| O=C1C2[C@@H](C(=O)N1c1ccc(Br)cc1)C13C(=CC2([N+](=O)[O-])[C@@H]2C(=O)N(c4ccc(Br)cc4)C(=O)[C@@H]21)c1ccccc1N3c1ccccc1 (some centres undefined) | – | > 100 | – | > 100 | – | > 100 | – | – | – | – | – | > 100 | – | – | – | > 100 | – | > 100 | – | – |
| Nc1ccc(C2=N/C(=C\c3cccc(N)c3)C(=O)O2)cc1 | – | > 100 | – | > 100 | – | > 100 | – | – | – | > 100 | – | > 100 | – | – | – | > 100 | – | > 100 | – | – |
| Cc1c(Cl)cccc1NC(=O)c1cccc([N+](=O)[O-])c1O | – | > 100 | – | > 78.9 | – | 38.7 | – | – | – | > 80.2 | – | 7.88 | – | – | – | > 100 | – | 46.7 | – | – |
| Cc1ccc(N2C(=O)N(c3ccc(C)cc3)C3(SC=NN3C)C2=O)cc1 (centres undefined) | – | – | – | > 100 | – | > 100 | – | – | – | > 100 | – | > 100 | – | – | – | > 100 | – | > 100 | – | – |
| CCOc1ccc(N=Cc2c3ccccc3nc3ccccc23)cc1 | – | > 100 | – | > 100 | – | > 100 | – | – | – | > 100 | – | > 100 | – | – | – | > 100 | – | > 100 | – | – |
| NC(=O)c1cn(Cc2ccccc2)c(=O)n1Cc1ccccc1 | – | > 100 | – | > 100 | – | – | – | – | – | > 100 | – | > 100 | – | – | – | > 100 | – | > 100 | – | – |
| COc1ccc2nc3cc(Cl)ccc3c(Sc3ccc(NC(C)=O)cc3)c2c1 | – | – | – | > 38.5 | – | > 51.8 | – | – | – | > 61.9 | – | > 27 | – | – | – | > 51.1 | – | 84.4 | – | – |
| COC(=O)C(=O)CC(=O)c1cccc(OC)c1 | – | > 100 | – | > 100 | – | > 100 | – | > 100 | – | > 100 | – | – | – | > 100 | – | > 100 | – | > 100 | – | > 100 |
| O=C(NNc1cnccn1)c1nc2cc(F)ccc2n2cccc12 | 0.183 | > 100 | 0.34 | 14.5 | 1.06 | > 100 | 0.336 | > 100 | 0.522 | > 100 | – | – | 2.24 | > 62.8 | 0.647 | > 100 | 0.34 | > 100 | 0.385 | > 100 |
| NCCN.O=C([O-])[O-].O=C([O-])[O-].[Co+3].[K+] | > 100 | > 100 | > 100 | > 100 | > 100 | > 100 | – | – | > 100 | > 100 | 49.4 µM and 75.2 µM | > 100 | – | – | > 100 | > 100 | > 100 | > 100 | – | – |
| Oc1ccc(Oc2cnc3ccccc3n2)cc1 | > 100 | > 100 | > 100 | > 100 | > 100 | > 100 | > 100 | > 100 | > 100 | > 100 | – | – | 12.3 | 57.5 | > 100 | > 100 | 41.4 | > 100 | 84.5 | > 100 |
| COC(=O)c1c[nH]cc1CCCCc1c[nH]cc1C(=O)OC | – | – | – | – | – | > 100 | – | – | – | > 100 | – | > 100 | – | – | – | > 100 | – | > 100 | – | – |
| CC12CCC(=O)N1c1cccnc1N2 (centres undefined) | – | > 100 | – | > 100 | – | > 100 | – | – | – | > 100 | – | > 100 | – | – | – | > 100 | – | > 100 | – | – |
| CCc1nc(Cl)c(Cl)c(Cl)n1 | – | > 100 | – | > 100 | – | > 100 | – | > 100 | – | > 100 | – | – | – | > 100 | – | > 100 | – | > 100 | – | – |
